# Test results: patent US20090099029A1, “Methods and substrates for conducting assays” (Invitrogen Corporation, priority 2005, published 2009)
# Target: T1, kinases of Table 5 (Homo sapiens, UniProt O14965)
# T1 sequence (O14965 1-403): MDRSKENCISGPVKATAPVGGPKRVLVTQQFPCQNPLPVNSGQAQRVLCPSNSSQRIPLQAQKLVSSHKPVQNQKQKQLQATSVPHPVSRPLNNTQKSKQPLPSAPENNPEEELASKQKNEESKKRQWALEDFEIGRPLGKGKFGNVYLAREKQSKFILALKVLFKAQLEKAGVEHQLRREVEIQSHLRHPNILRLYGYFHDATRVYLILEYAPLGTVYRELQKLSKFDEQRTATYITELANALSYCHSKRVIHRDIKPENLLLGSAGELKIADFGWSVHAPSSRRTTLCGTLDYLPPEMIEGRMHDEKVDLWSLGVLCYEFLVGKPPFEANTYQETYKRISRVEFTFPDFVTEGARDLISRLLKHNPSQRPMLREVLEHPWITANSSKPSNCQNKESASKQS
# Assay: Further analysis of a plurality of inhibitors and a plurality of kinases (Table 5 inhibition results)
# Type: biochemical
# Parameters: scale not given here
# Conditions: kinase STK6 (Part I, plate C6, Domain 1); inhibitor 21.5 uM
# Description: (§1) The wash solution is then discarded.
row,Compound,Inhibition Results (Level)
1,CN[C@@H]1C[C@H]2O[C@@](C)([C@@H]1OC)n1c3ccccc3c3c4c(c5c6ccccc6n2c5c31)C(=O)NC4 [Staurosporine],0

# Same assay, conditions: kinase STK6 (Part I, plate C6, Domain 1); inhibitor 90 uM
row,Inhibition Results (Level),Compound
1,0,Cn1cc(C2=C(c3cn(CCCSC(=N)N)c4ccccc34)C(=O)NC2=O)c2ccccc21 [Ro-31-8220]

# Same assay, conditions: kinase STK6 (Part I, plate C6, Domain 1); inhibitor 100 uM
row,Inhibition Results (Level),Compound
1,0,COc1cc2ncnc(Nc3cccc(Cl)c3)c2cc1OC [AG 1478]
2,2,Cn1cc(C2=C(c3cn(CCCSC(=N)N)c4ccccc34)C(=O)NC2=O)c2ccccc21 [Ro-31-8220]

row,Compound,Inhibition Results (Level)
1,N#C/C(=C/c1ccc(O)c(O)c1)C(=O)NCc1ccccc1 [AG 490],2

# Target: kinases of Table 5 (Homo sapiens, UniProt P00519)
# Assay: as above
# Type: biochemical
# Parameters: scale not given here
# Conditions: kinase ABL1; concentration not given
# Description: as §1
# kinases of Table 5 (Homo sapiens, UniProt P00519), sequence (P00519 whole entry): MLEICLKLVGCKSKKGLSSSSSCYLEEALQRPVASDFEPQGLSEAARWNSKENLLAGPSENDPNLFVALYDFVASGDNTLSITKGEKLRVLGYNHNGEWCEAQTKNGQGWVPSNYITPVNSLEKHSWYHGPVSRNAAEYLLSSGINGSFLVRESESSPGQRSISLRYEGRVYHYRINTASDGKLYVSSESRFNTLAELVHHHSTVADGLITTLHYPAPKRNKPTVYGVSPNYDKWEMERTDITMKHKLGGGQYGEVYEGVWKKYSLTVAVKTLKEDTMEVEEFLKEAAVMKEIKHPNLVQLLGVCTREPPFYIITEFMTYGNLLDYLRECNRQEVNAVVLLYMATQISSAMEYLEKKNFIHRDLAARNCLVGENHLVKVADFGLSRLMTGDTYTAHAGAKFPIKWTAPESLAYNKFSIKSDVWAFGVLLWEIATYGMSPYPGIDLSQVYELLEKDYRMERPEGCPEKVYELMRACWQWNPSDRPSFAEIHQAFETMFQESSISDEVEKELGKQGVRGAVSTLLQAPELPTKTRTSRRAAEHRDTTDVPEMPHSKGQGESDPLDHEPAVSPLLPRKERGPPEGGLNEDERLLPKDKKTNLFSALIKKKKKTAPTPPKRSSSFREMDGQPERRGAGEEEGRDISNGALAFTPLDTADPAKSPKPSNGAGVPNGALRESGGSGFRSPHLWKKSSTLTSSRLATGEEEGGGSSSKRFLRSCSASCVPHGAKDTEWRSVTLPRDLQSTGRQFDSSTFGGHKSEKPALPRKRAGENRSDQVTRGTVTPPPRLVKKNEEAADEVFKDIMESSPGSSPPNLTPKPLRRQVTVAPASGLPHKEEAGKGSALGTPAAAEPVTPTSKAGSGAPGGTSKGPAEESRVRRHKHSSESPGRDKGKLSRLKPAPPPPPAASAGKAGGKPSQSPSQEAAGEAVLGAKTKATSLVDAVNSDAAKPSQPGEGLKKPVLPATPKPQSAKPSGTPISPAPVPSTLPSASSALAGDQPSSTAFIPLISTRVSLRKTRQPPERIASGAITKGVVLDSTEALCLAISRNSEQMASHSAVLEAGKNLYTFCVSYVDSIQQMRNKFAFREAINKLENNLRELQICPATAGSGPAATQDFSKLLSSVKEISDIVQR
row,Inhibition level,Compound
1,0,Cn1cc(C2=C(c3cn(CCCSC(=N)N)c4ccccc34)C(=O)NC2=O)c2ccccc21 [Ro-31-8220]

# Same assay, conditions: kinase ABL1; inhibitor 100 uM
row,Inhibition level,Compound
1,1,COc1cc2ncnc(Nc3cccc(Cl)c3)c2cc1OC [AG 1478]
2,2,Cn1cc(C2=C(c3cn(CCCSC(=N)N)c4ccccc34)C(=O)NC2=O)c2ccccc21 [Ro-31-8220]

row,Compound,Inhibition level
1,N#C/C(=C/c1ccc(O)c(O)c1)C(=O)NCc1ccccc1 [AG 490],0

# Target: kinases of Table 5 (Homo sapiens, UniProt P11309)
# Assay: as above
# Type: biochemical
# Parameters: scale not given here
# Conditions: not given
# Description: as §1
# kinases of Table 5 (Homo sapiens, UniProt P11309), sequence (P11309 whole entry): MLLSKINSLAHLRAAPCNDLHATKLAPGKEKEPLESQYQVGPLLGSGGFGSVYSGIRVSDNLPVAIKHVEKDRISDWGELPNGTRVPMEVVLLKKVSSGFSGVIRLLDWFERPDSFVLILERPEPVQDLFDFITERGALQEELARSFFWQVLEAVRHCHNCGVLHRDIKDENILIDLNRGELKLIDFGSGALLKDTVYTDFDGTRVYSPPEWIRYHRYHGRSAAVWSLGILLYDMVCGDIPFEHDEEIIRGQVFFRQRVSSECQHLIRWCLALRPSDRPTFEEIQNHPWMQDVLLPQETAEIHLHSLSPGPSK
row,Compound,Inhibition Results (Level)
1,CN[C@@H]1C[C@H]2O[C@@](C)([C@@H]1OC)n1c3ccccc3c3c4c(c5c6ccccc6n2c5c31)C(=O)NC4 [Staurosporine],2

# Same assay, conditions: kinase PIM1 (Part I, plate C2, Domain 1); inhibitor 90 uM
row,Inhibition Results (Level),Compound
1,2,Cn1cc(C2=C(c3cn(CCCSC(=N)N)c4ccccc34)C(=O)NC2=O)c2ccccc21 [Ro-31-8220]

# Same assay, conditions: kinase PIM1 (Part I, plate C2, Domain 1); inhibitor 100 uM
row,Inhibition Results (Level),Compound
1,1,COc1cc2ncnc(Nc3cccc(Cl)c3)c2cc1OC [AG 1478]
2,0,Cn1cc(C2=C(c3cn(CCCSC(=N)N)c4ccccc34)C(=O)NC2=O)c2ccccc21 [Ro-31-8220]

row,Compound,Inhibition Results (Level)
1,N#C/C(=C/c1ccc(O)c(O)c1)C(=O)NCc1ccccc1 [AG 490],2

# Target: T2, kinases of Table 5 (Homo sapiens, UniProt P45985)
# T2 sequence (P45985 1-399): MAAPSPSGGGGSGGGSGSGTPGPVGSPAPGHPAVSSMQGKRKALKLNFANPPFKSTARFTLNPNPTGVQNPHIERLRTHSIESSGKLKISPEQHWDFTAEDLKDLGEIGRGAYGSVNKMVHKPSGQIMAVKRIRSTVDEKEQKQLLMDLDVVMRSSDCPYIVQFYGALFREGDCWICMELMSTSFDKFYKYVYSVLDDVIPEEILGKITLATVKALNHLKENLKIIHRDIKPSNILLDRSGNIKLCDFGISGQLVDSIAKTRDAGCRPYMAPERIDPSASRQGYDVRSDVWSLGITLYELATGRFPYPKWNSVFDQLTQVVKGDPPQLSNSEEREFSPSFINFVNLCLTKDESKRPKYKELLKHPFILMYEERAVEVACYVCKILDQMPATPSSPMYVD
# Assay: as above
# Type: biochemical
# Parameters: scale not given here
# Conditions: not given
# Description: as §1
row,Compound,Inhibition Results (Level)
1,CN[C@@H]1C[C@H]2O[C@@](C)([C@@H]1OC)n1c3ccccc3c3c4c(c5c6ccccc6n2c5c31)C(=O)NC4 [Staurosporine],0

# Same assay, conditions: kinase MAP2K4 (Part I, plate E6, Domain 1); inhibitor 90 uM
row,Inhibition Results (Level),Compound
1,0,Cn1cc(C2=C(c3cn(CCCSC(=N)N)c4ccccc34)C(=O)NC2=O)c2ccccc21 [Ro-31-8220]

# Same assay, conditions: kinase MAP2K4 (Part I, plate E6, Domain 1); inhibitor 100 uM
row,Inhibition Results (Level),Compound
1,0,COc1cc2ncnc(Nc3cccc(Cl)c3)c2cc1OC [AG 1478]
2,1,Cn1cc(C2=C(c3cn(CCCSC(=N)N)c4ccccc34)C(=O)NC2=O)c2ccccc21 [Ro-31-8220]

row,Compound,Inhibition Results (Level)
1,N#C/C(=C/c1ccc(O)c(O)c1)C(=O)NCc1ccccc1 [AG 490],0

# Target: kinases of Table 5 (Homo sapiens, UniProt Q00536)
# Assay: as above
# Type: biochemical
# Parameters: scale not given here
# Conditions: kinase PCTK1 (Part I, plate A3, Domain 0); inhibitor 100 uM
# Description: as §1
# kinases of Table 5 (Homo sapiens, UniProt Q00536), sequence (Q00536 whole entry): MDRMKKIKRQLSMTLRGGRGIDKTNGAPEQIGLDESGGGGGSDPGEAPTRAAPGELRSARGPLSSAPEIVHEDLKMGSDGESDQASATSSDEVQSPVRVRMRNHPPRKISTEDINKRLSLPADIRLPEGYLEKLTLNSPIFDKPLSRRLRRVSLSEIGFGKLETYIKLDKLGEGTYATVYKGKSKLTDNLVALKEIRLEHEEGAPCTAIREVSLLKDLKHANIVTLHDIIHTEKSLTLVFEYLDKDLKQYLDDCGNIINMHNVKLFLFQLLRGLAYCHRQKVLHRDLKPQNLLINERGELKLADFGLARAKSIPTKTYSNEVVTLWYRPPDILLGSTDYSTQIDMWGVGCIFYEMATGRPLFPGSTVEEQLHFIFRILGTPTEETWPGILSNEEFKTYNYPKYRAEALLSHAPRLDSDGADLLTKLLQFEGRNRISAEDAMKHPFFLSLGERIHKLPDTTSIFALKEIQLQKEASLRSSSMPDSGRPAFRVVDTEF
row,Inhibition Results (Level),Compound
1,0,COc1cc2ncnc(Nc3cccc(Cl)c3)c2cc1OC [AG 1478]
2,0,Cn1cc(C2=C(c3cn(CCCSC(=N)N)c4ccccc34)C(=O)NC2=O)c2ccccc21 [Ro-31-8220]

row,Compound,Inhibition Results (Level)
1,N#C/C(=C/c1ccc(O)c(O)c1)C(=O)NCc1ccccc1 [AG 490],0

# Target: kinases of Table 5 (Homo sapiens, UniProt Q7KZI7)
# Assay: as above
# Type: biochemical
# Parameters: scale not given here
# Conditions: kinase MARK2 (Part I, plate C4, Domain 1); inhibitor 100 uM
# Description: as §1
# kinases of Table 5 (Homo sapiens, UniProt Q7KZI7), sequence (Q7KZI7 whole entry): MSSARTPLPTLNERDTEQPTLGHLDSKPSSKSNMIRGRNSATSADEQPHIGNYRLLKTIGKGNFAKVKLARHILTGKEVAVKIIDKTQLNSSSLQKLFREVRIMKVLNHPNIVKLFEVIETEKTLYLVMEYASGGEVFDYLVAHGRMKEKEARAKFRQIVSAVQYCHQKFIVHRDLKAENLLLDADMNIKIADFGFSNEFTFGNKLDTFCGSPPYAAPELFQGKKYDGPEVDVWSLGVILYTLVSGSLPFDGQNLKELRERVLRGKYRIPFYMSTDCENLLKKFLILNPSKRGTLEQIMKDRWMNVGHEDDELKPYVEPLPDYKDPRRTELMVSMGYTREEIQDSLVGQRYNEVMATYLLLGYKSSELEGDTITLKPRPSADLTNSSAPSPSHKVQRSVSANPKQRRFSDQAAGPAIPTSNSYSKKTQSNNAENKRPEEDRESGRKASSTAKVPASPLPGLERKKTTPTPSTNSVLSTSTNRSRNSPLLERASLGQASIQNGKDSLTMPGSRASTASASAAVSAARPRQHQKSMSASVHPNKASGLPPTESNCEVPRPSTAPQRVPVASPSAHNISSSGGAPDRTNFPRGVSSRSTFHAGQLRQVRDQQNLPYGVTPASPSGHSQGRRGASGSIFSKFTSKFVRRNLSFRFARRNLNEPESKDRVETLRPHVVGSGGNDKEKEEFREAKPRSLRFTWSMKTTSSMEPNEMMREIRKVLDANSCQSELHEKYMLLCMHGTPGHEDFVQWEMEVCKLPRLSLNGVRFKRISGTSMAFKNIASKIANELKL
row,Inhibition Results (Level),Compound
1,2,COc1cc2ncnc(Nc3cccc(Cl)c3)c2cc1OC [AG 1478]
2,2,Cn1cc(C2=C(c3cn(CCCSC(=N)N)c4ccccc34)C(=O)NC2=O)c2ccccc21 [Ro-31-8220]

row,Compound,Inhibition Results (Level)
1,N#C/C(=C/c1ccc(O)c(O)c1)C(=O)NCc1ccccc1 [AG 490],2

# Target: T3, kinases of Table 5 (Homo sapiens, UniProt Q8IVH8)
# T3 sequence (Q8IVH8 1-894): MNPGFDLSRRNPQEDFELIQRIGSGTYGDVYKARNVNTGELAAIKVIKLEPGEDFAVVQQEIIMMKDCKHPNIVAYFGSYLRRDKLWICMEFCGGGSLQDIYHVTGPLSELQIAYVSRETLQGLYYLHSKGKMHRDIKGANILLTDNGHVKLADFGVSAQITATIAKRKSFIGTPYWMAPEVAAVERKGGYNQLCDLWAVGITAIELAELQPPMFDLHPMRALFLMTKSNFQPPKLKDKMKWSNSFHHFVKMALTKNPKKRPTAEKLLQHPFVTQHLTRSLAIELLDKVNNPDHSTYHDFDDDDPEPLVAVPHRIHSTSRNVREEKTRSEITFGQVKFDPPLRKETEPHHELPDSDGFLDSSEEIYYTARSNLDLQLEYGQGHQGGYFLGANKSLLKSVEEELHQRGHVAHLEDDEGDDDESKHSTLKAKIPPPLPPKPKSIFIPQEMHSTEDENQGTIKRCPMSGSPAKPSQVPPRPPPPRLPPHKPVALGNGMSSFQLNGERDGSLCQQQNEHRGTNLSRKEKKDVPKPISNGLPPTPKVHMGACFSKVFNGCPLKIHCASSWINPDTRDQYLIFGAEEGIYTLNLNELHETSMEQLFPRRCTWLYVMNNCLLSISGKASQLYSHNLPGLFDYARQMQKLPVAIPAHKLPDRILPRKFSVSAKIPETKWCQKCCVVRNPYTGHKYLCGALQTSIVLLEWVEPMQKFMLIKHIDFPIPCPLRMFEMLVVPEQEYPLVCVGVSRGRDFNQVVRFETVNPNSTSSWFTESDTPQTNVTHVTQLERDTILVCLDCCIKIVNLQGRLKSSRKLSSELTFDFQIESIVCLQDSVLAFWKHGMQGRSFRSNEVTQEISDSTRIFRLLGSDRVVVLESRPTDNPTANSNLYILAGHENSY
# Assay: as above
# Type: biochemical
# Parameters: scale not given here
# Conditions: kinase MAP4K3 (Part I, plate C5, Domain 1); inhibitor 100 uM
# Description: as §1
row,Inhibition Results (Level),Compound
1,2,COc1cc2ncnc(Nc3cccc(Cl)c3)c2cc1OC [AG 1478]
2,2,Cn1cc(C2=C(c3cn(CCCSC(=N)N)c4ccccc34)C(=O)NC2=O)c2ccccc21 [Ro-31-8220]

row,Compound,Inhibition Results (Level)
1,N#C/C(=C/c1ccc(O)c(O)c1)C(=O)NCc1ccccc1 [AG 490],1

# Target: T4, kinases of Table 5 (Homo sapiens, UniProt Q96KB5)
# T4 sequence (Q96KB5 1-322): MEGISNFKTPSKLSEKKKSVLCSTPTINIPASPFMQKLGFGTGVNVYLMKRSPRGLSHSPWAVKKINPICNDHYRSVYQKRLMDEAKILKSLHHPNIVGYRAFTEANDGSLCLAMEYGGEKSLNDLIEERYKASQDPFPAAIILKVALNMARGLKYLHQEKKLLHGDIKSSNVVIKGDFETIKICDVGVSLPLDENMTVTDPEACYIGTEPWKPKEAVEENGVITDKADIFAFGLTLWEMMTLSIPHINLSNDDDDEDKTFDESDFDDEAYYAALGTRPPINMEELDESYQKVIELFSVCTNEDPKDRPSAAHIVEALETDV
# Assay: as above
# Type: biochemical
# Parameters: scale not given here
# Conditions: kinase TOPK (Part I, plate G7, Domain 1); inhibitor 21.5 uM
# Description: as §1
row,Compound,Inhibition Results (Level)
1,CN[C@@H]1C[C@H]2O[C@@](C)([C@@H]1OC)n1c3ccccc3c3c4c(c5c6ccccc6n2c5c31)C(=O)NC4 [Staurosporine],2

# Same assay, conditions: kinase TOPK (Part I, plate G7, Domain 1); inhibitor 90 uM
row,Inhibition Results (Level),Compound
1,2,Cn1cc(C2=C(c3cn(CCCSC(=N)N)c4ccccc34)C(=O)NC2=O)c2ccccc21 [Ro-31-8220]

# Same assay, conditions: kinase TOPK (Part I, plate G7, Domain 1); inhibitor 100 uM
row,Inhibition Results (Level),Compound
1,1,COc1cc2ncnc(Nc3cccc(Cl)c3)c2cc1OC [AG 1478]
2,0,Cn1cc(C2=C(c3cn(CCCSC(=N)N)c4ccccc34)C(=O)NC2=O)c2ccccc21 [Ro-31-8220]

row,Compound,Inhibition Results (Level)
1,N#C/C(=C/c1ccc(O)c(O)c1)C(=O)NCc1ccccc1 [AG 490],2

# Target: kinases of Table 5 (Homo sapiens, UniProt Q9Y6E0)
# Assay: as above
# Type: biochemical
# Parameters: scale not given here
# Conditions: kinase STK24; inhibitor 100 uM
# Description: as §1
# kinases of Table 5 (Homo sapiens, UniProt Q9Y6E0), sequence (Q9Y6E0 whole entry): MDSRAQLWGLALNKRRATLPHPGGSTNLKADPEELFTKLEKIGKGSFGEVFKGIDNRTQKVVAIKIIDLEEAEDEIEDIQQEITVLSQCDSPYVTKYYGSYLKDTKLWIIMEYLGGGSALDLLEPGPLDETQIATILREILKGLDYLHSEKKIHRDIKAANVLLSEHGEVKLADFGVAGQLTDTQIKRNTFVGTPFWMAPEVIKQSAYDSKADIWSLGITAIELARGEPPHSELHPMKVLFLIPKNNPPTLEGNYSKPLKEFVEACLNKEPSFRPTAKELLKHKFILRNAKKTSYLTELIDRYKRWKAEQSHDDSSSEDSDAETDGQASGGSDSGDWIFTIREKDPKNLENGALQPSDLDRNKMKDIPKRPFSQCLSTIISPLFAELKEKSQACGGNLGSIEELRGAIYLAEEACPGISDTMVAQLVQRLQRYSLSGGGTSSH
row,Inhibition level,Compound
1,1,COc1cc2ncnc(Nc3cccc(Cl)c3)c2cc1OC [AG 1478]
2,2,Cn1cc(C2=C(c3cn(CCCSC(=N)N)c4ccccc34)C(=O)NC2=O)c2ccccc21 [Ro-31-8220]

row,Compound,Inhibition level
1,N#C/C(=C/c1ccc(O)c(O)c1)C(=O)NCc1ccccc1 [AG 490],2
